Experimental data: publication PMC3462244 (2012)
pKi: −log10 of the molar value.

Target: cannabinoid receptor subtype 2 (CB2) (Homo sapiens, UniProt P34972)
Assay: [3H]CP-55940 radioligand competition binding, CHO-CB2 cell membranes

Chain of cannabinoid receptor subtype 2 (CB2) (P34972 whole entry): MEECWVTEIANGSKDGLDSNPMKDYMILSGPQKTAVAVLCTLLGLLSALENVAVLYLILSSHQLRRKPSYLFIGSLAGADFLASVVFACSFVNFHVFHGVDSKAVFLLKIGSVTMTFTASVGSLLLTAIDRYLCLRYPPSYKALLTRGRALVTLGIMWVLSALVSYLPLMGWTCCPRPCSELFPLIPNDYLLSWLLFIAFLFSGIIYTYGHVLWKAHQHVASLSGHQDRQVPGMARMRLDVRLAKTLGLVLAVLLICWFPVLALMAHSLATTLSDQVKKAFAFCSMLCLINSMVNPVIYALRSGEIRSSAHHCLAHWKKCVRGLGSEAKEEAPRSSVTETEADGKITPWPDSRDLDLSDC

## COC(=O)C1(C)CCCC2(C)c3cc(O)c(C(C)C)cc3CCC12 (stereo not shown) [compound 49888, NSC49888]
  pKi: 8.17

## COc1ccc2c(c1)CCC1=C2CC2C(=O)C1(C)CCC2(C)OC(C)=O (stereo not shown) [compound 76301, NSC76301]
  Experimental pKi: 5.42 pKi

## COc1ccc2c(c1)c1c(C)c3cnccc3c(C)c1n2CCCN1C(=O)c2ccccc2C1=O [compound 174122, NSC174122]
  Experimental pKi: 5.59 pKi

## CC(=O)OC1CC2C3(C)CCC4C(C)(C)CCCC4(C)C3CC(O)C2(C)C2C1=COC2OC(C)=O (stereo not shown) [compound 369049, NSC369049]
  Experimental pKi: 5.51 pKi
